Tests used:
SH-SY5Y cells = assay: Neurite growth detection, Aβ-treated SH-SY5Y cells; type: cell-based; conditions: 1 μM Aβ, 24 h
Description: The SH-SY5Y cell line was purchased from the Peking Union Hospital Cell Bank, cultured in a humidified incubator under 5% CO2 and 37° C., A MTT cell viability assay was performed according to the instructions in the kit (Sigma). […] The optical density values were determined at a wavelength of 563 nm (Synergy H4, Bio Tek). The neurite growth test was performed according to the method described in the prior documents (see, for example, Wang, Y. J., et al., Effects of proNGF on neuronal viability, neurite growth and amyloid-beta metabolism. Neurotox Res, 2010, 17(3): p. 257-67).

microglia = assay: Microglia reaction immunostaining (CD45); type: in vivo; conditions: AD mice
Description: (§1) APPswe/PS1DE9 (AD) transgenic mice were purchased from Jackson Laboratory, USA (No. 005864), raised in the SPF grade animal house of The Third Affiliated Hospital of The Third Military Medical University. All the processes and correlated experiments applied to the mice were approved and filed with the Animal Ethics Committee of the Third Military Medical University. […] Alternatively, the daily dose for the prophylactic group may be 6.4 mg/kg, and the daily dose for the treatment group may be 12.8 mg/kg. Administration from 3-month old to 9-month old is the prophylactic test, and administration from 9-month old to 12-month old is the therapeutic test After reaching a stated time, the mice in each group received behavioral tests according to the method in the follows. Three mice in each group were taken for Golgi staining. The remaining mice were overly anaesthetized to receive brain anatomy. One side of the cerebral hemisphere was frozen and then for a biochemical analysis, and the other side of the cerebral hemisphere was fixed with 4% paraform for a histological analysis.
Immunohistochemistry in the method of bleach section was carried out according to the previous steps. The primary antibodies were rabbit-anti-mouse CD45 antibody (for labelling microglias), rabbit-anti-mouse GFAP (for labelling astrocytes) and rabbit-anti-mouse pSer396-Tau antibody, respectively. […]

[1] = test system: Aβ deposition in the blood vessels of the brain; assay: Cerebrovascular amyloidosis detection (double immunofluorescence 1a4/6E10); type: in vivo; conditions: AD mice
Description: as §1
A new assessment method was applied in the present research to assess the severity of the cerebrovascular amyloidosis. The blood vessels in the brain were double immunofluorescence stained with α-smooth muscle action antibody (1a4) and Aβ antibody (6E10), observed under eonfocal laser microscopy (Radiance 2000MP, Bio-Rad), and the images of the blood vessels were recorded. The severity of the CAA of each blood vessel was scored based on the following four-level scale: level 0: no Aβ deposition; level 1: little Aβ deposition, Aβ deposition occupies less than one third of the perimeter of the blood vessel; level 2: moderate Aβ deposition, Aβ deposition occupies more than one third but less than two thirds of the perimeter of the blood vessel; level 3: severe deposition, Aβ deposition occupies more than […] of the perimeter of the blood vessel.

CC1=NN(c2ccccc2)C(=O)C1 [Edaravone, 3-methyl-1-phenyl-2-pyrazolin-5-one]
all-trans-Retinoic acid induced neurite length (SH-SY5Y cells): neurite length also increases | microglia reaction level in the brain (microglia; p.o.): significantly reduced, too | microglia reaction in the brain (microglia; prophylactic and therapeutic test): all reduced significantly | proportions of the blood vessels at level 0 and level 1 CAA [1]: significantly increased | proportions of the blood vessels at level 2 and level 3 CAA [1]: significantly reduced | Aβ deposition in the blood vessels of the brain ([1]; Edaravone treatment group): significantly reduced
